For assay [1], the target named is T1, Gag-Pol polyprotein [588-1027,K691N,Y769C]/[588-1147,K691N,Y769C] (Human immunodeficiency virus 1, UniProt P04585, K691N/Y769C).
T1 construct: 588-1027; 588-1147
Description: Reverse Transcriptase Assay.

Assay [2] concerns the target T2, Gag-Pol polyprotein [588-1027] (Human immunodeficiency virus type 1 group M subtype B (isolate HXB2), UniProt P04585).
T2 construct: 588-1027
Description: Reverse Transcriptase Assay. Particulars: pH 7.4; 37 °C.

Our source for the IC50 and EC50 values is BindingDB's records for doi:10.1016/j.bmcl.2008.12.074 (Boehringer Ingelheim (Canada), 2009).

One may read the IC50 as the concentration that inhibits the measured activity by half. As a reminder, the EC50 is the concentration giving half of the maximal effect. The low end stands for higher potency in that assay, the high end for lower potency in that assay.

On to `Cc1ccc(-n2ncc(C)c2SCC(=O)Nc2ccc(-c3ccc(CC(=O)O)cc3)cc2Cl)c(Cl)c1` [2-{4-[3-chloro-4-(2-{[1-(2-chloro-4-methylphenyl)-4-methyl-1H-pyrazol-5-yl]sulfanyl}acetamido)phenyl]phenyl}acetic acid], for which the IC50 in assay [1] and in assay [2] was more than 10000 nM in each case.

For `Cc1[nH]nc(OCC(=O)Nc2ccc(C#CC(C)(C)CO)cc2Cl)c1-c1ccc(C(C)(C)C)cc1Cl` [2-{[4-(4-tert-butyl-2-chlorophenyl)-5-methyl-1H-pyrazol-3-yl]oxy}-N-[2-chloro-4-(4-hydroxy-3,3-dimethylbut-1-yn-1-yl)phenyl]acetamide], in assay [2], the EC50 is more than 5000 nM and the IC50 was more than 3300 nM. For `Cc1ccc(-n2cc(C)nc2SCC(=O)Nc2ccccc2Cl)c(Cl)c1` [2-{[1-(2-chloro-4-methylphenyl)-4-methyl-1H-imidazol-2-yl]sulfanyl}-N-(2-chlorophenyl)acetamide], the values for the IC50 in assay [1] and in assay [2] were more than 10000 nM and more than 1000 nM, respectively. In assay [2], `CC(C)(C)c1ccc(-c2c[nH]nc2OCC(=O)Nc2ccc(-c3ccc(CC(=O)O)cc3)cc2Cl)c(Cl)c1` [2-{4-[4-(2-{[4-(4-tert-butyl-2-chlorophenyl)-1H-pyrazol-3-yl]oxy}acetamido)-3-chlorophenyl]phenyl}acetic acid] gave an IC50 of more than 3300 nM. As to `Cc1ccc(-c2c(SCC(=O)Nc3ccc(-c4ccc(OCC(=O)O)cc4)cc3Cl)ccn2C)c(Cl)c1` [2-{4-[3-chloro-4-(2-{[2-(2-chloro-4-methylphenyl)-1-methyl-1H-pyrrol-3-yl]sulfanyl}acetamido)phenyl]phenoxy}acetic acid], the concentration for half-maximal inhibition (IC50) in assay [2] was more than 1000 nM. Turning to `Cc1ccc(-n2nnnc2SCC(=O)Nc2ccc(-c3ccc(CC(=O)O)cc3)cc2Cl)c(Cl)c1` [2-{4-[3-chloro-4-(2-{[1-(2-chloro-4-methylphenyl)-1H-1,2,3,4-tetrazol-5-yl]sulfanyl}acetamido)phenyl]phenyl}acetic acid], the IC50 in assay [1] turned out to be 48 nM; in assay [2] it was 2.4 nM.
